Measurements taken from BindingDB's records for patent US9745328 (Janssen Pharmaceutica NV, 2017).

Biological target: T1, Arachidonate 5-lipoxygenase-activating protein (Homo sapiens, UniProt P20292)
T1 sequence (P20292 whole entry): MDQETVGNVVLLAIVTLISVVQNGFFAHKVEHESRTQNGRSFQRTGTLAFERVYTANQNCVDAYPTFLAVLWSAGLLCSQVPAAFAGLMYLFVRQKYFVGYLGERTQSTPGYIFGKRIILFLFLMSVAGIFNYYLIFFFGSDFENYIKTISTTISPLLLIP
Experiment: Binding Assay
Experimental: The FLAP binding assay is performed in HTRF format (homogeneous time resolved fluorescence). FLAP-containing membranes (1 μg/well final for human) are incubated in the presence of the HTRF ligand. […] The reaction is allowed to proceed for two hours after which the plate is read on an Envision plate reader in HTRF mode. Data are expressed as a HTRF ratio. For human FLAP binding assays, data are analyzed with 3DX Explorer software. […] For analysis, data from multiple runs are averaged and each compound may be tested in 2 to 20 runs. Each run comprises two plates and each plate includes duplicates. Data from each plate is averaged and data are imported into 3DX. The data from multiple runs are aggregated as the average of duplicates of the calculated ratios in order to calculate Ki and IC50 values.

Question: With `Nc1cnc(-c2ccc(-c3ccccc3-c3ccc(N)nn3)cc2F)cn1` [US9745328, Compound 863] as the compound, how does the Ki read?
Answer: Its Ki is 41.1 nM.
